Legend:
[1] = system: ovariectomized BALB/c mice; assay: 3-point bending of femur (whole-bone strength), ovariectomy-induced bone fragility model; format: in vivo, mouse (BALB/cJRj, female); conditions: 28 days, n=8
Procedure: (§1) Eight animals were randomly assigned to each group.
All animals received intraperitoneal administration of calcein green (10 mg/kg) 10 days and 2 days before sacrifice. Animals were housed in social groups and maintained in a 12 h:12 h light/dark cycle. They had free access to water and food. At necropsy, blood was collected by intracardiac aspiration into EDTA-treated tubes. Blood samples were centrifuged at 13,000 g for 15 min, aliquoted and stored at -80°C until plasma levels of exendin-4 (#EK-070-94, Phoenix pharmaceuticals, Burlingame, CA) and calcitonin (NBP3-06734, Bio-Techne Ltd, Abingdon, UK) were measured according to the manufacturer’s protocol. Plasma levels of the bone remodeling markers C-terminal telopeptide of collagen type I (CTx-I – RatLaps, Immunodiagnostic Systems Ltd, Boldon, UK) and N-terminal propeptide of type I collagen (P1NP - Rat/mouse P1NP, Immunodiagnostic Systems Ltd) were measured according to the manufacturers’ recommendation. Right femurs were wrapped in saline-soaked gauze and frozen at -20°C until use. Right tibiae were fixed in ethanol-based fixative and stored at 4°C until use. No specific inclusion or exclusion criteria were applied for animal selection. […] Additionally, correct implantation of the cerebral perfusion cannulas for icv-administered animals was verified at necropsy. All animals meeting these criteria were included in the study.
The whole-bone strength of right femurs was assessed by 3-point bending in accordance with published guidelines ([34]). Three-point bending strength was measured with a constant span length of 10 mm. Bones were tested in the antero-posterior axis with the posterior surface facing upward, centered on the support and the pressing force was applied vertically to the midshaft of the bone. Each bone was tested fully hydrated and at room temperature with a loading speed of 2 mm.min^-1 until failure with a 500 N load cell on an Instron 5942 device (Instron, Elancourt, France) and the load-displacement curve was recorded at a 100 Hz rate by the Bluehill 3 software (Instron). Ultimate load, ultimate displacement, stiffness and work to fracture were calculated as indicated in ([34]). The yield point was determined as the point at which a regression line that represents a 10% loss in stiffness crosses the load-displacement curve. Post-yield displacement was computed as the displacement between yielding and fracture. Peak bending moment was calculated as one-half the ultimate load multiplied by one-half the span length ([34]). The peak bending moment is related to bone tissue material properties and bone midshaft geometry by the following equation: M=σb×IML/cAP

[2] = system: ovariectomized BALB/c mice; assay: microCT cortical bone microstructure, midshaft femur; format: in vivo, mouse (BALB/cJRj, female); conditions: 28 days, OVX, n=8
Procedure: as §1
All animals received intraperitoneal administration of calcein green (10 mg/kg) 10 days and 2 days before sacrifice. Animals were housed in social groups and maintained in a 12 h:12 h light/dark cycle. They had free access to water and food. At necropsy, blood was collected by intracardiac aspiration into EDTA-treated tubes. Blood samples were centrifuged at 13,000 g for 15 min, aliquoted and stored at -80°C until plasma levels of exendin-4 (#EK-070-94, Phoenix pharmaceuticals, Burlingame, CA) and calcitonin (NBP3-06734, Bio-Techne Ltd, Abingdon, UK) were measured according to the manufacturer’s protocol. Plasma levels of the bone remodeling markers C-terminal telopeptide of collagen type I (CTx-I – RatLaps, Immunodiagnostic Systems Ltd, Boldon, UK) and N-terminal propeptide of type I collagen (P1NP - Rat/mouse P1NP, Immunodiagnostic Systems Ltd) were measured according to the manufacturers’ recommendation. Right femurs were wrapped in saline-soaked gauze and frozen at -20°C until use. […]
MicroCT analyses were performed at the proximal metaphysis of the right tibia and at the mid-diaphysis of the right femur with a Bruker 1272 microtomograph operated at 70 kV, 140 μA, 1000 ms integration time and imaging in ethanol 70. […] The region analyzed (0.5 mm) was centered at the midpoint between the third trochanter and the distal growth plate. […]

[3] = icv Ex-4 70 pmol/day, vs OVX+vehicle, p<0.001

In the case of exendin-4 [Ex-4], the increase in energy-to-fracture [1, 3] is reported as 8%, the “increase in post-yield displacement” value [1, 3] is reported as 8% and the “increase in ultimate load” value ([1]; icv Ex-4 70 pmol/day, vs OVX+vehicle, p=0.010) is reported as 7%. For the same substance, the ultimate load ([1]; s.c. Ex-4 ~700 pmol/day, OVX, p=0.817) was “did not prevent the impact of ovariectomy on ultimate load”, the stiffness ([1]; s.c. Ex-4 ~700 pmol/day, OVX, p=0.984) was “did not prevent the impact of ovariectomy” and the increase in energy-to-fracture ([1]; s.c. Ex-4 ~700 pmol/day, vs OVX+vehicle, p=0.020) was 24%. The “increase in post-yield displacement” value ([1]; s.c. Ex-4 ~700 pmol/day, vs OVX+vehicle, p=0.025) was 18%, the cortical bone microstructure ([2]; icv Ex-4 70 pmol/day) was “unable to demonstrate significant changes in cortical bone microstructure” and the cortical bone microstructure ([2]; s.c. Ex-4 ~700 pmol/day) was “did not alter cortical bone microstructure”.
